B1: BDNF: classical neurotrophic factor, used as an endogenous activator of the signalling pathway under investigation (protein, UniProt P23560 19-247, looked up)
Neurotrophic factor BDNF …: APMKEANIRGQGGLAYPGVRTHGTLESVNGPKAGSRGLTSLADTFEHVIEELLDEDQKVRPNEENNKDADLYTSRVMLSSQVPLEPPLLFLLEEYKNYLDAANMSMRVRRHSDPARRGELSVCDSISEWVTAADKKTAVDMSGGTVTVLEKVPVSKGQLKQYFYETKCNPMGYTKEGCRGIDKRHWNSQCRTTQSYVRALTMDSKKRIGWRFIRIDTSCVCTLTIKRGR

How the values were obtained:
[1] = system: dopaminergic TH-positive neurons injured with MPP+; experiment: MPP+ in vitro Parkinson's disease model, mitochondrial ROS in TH neurons at 4 hours (TH/ROS plate); format: cell-based, rat; conditions: CF3CN 10 nm to 1 μm, 1 h pre-incubation, MPP+ 4 μM, FIG. 1
Procedure: (§1) The ventral portion of the mesencephalic flexure, a region of the developing brain rich in dopaminergic neurons, was used for the cell preparations.
(§2) (solution at a final concentration of 0.05% trypsin and 0.02% EDTA). […] Cells were then mechanically dissociated by 3 passages through a 10 ml pipette. Cells were then centrifuged at 180×g for 10 min at +4° C. on a layer of BSA (3.5%) in L15 medium. […] Viable cells were counted in a Neubauer cytometer using the trypan blue exclusion test. […] Half of the medium was changed every 2 days with fresh medium.

[2] = system: dopaminergic TH-positive neurons injured with MPP+; experiment: MPP+ in vitro Parkinson's disease model, TH/αSyn plate at 48 hours (α-syn, DA neurons, neurites); format: cell-based, rat; conditions: MPP+ 4 μM
Procedure: as §1, §2
The cells were washed twice in PBS, and then permeabilized.

[3] = system: primary SOD1 transgenic spinal cord motor neurons injured with glutamate; experiment: In vitro ALS model: glutamate-injured primary spinal motor neurons (MAP2/TDP43, 24 hours); format: cell-based, rat; conditions: for number of motor neurons: FIG. 5
Procedure: Cells were mechanically dissociated by three forced passages through the tip of a 10-ml pipette. Cells were then centrifuged at 515×g for 10 min at 4° C. […] Viable cells were counted in a Neubauer cytometer, using the trypan blue exclusion test. […] The medium was changed every 2 days.

5XFAD mice = conditions: repeated administration, WO2020/033604; cited from earlier work

Row | Molecule | reduction of mitochondrial stress (ROS in TH(+) neurons) [1] | level of neurites ([2]; CF3CN 1 nm to 1 μm, FIG. 4) | number of DA neurons ([2]; CF3CN 10 and 100 nm, FIG. 3) | level of α-syn ([2]; all dose levels (1 nM to 5 μM) except 10 μm, FIG. 2) | neurite network ([3]; CF3CN 10 and 100 nm, glutamate 5 μM 20 min, 24 hours, compared to the control, FIG. 6) | level of extranuclear TDP-43 versus the positive controls ([3]; CF3CN 10 nm and 100 nm, compared with Riluzole 5 μM and BDNF 50 ng/ml) | number of motor neurons ([3]; CF3CN 10 nm, 100 nm and 1 μm, glutamate 5 μM 20 min, 24 hours, compared to the control) | number of extranuclear TDP-43 ([3]; CF3CN all concentrations except the highest and the lowest (10 nM to 5 μM), glutamate 5 μM 20 min, 24 hours, FIG. 7) | synaptic loss (5XFAD mice) | number of motor neurons ([3]; positive controls: Riluzole 5 μM, BDNF 50 ng/ml, glutamate 5 μM 20 min, 24 hours, compared to the control)
1 | N#Cc1ccc(-c2cc(=O)c3ccc4[nH]c(C(F)(F)F)nc4c3o2)cc1 [CF3CN, 4-(6-oxo-2-(trifluoromethyl)-3,6-dihydrochromeno[7,8-d]imidazol-8-yl)benzonitrile] | statistically significantly reduced ROS | increase the level of neurites | increase the number of DA neurons | statistically significantly reduce the level of α-syn | increased the neurite network in a statistically significant manner | greater decrease in the level of extranuclear TDP-43 than the positive controls | statistically significant increase in the number of motor neurons | decreased the number of extranuclear TDP-43 in a statistically significant manner | prevent synaptic loss | 
2 | B1 |  |  |  |  |  |  |  |  |  | statistically significant increase in the number of motor neurons

Reference: US20250170103A1, “4-(6-OXO-2-(TRIFLUOROMETHYL)-3,6-DIHYDROCHROMENO[7,8-D]IMIDAZOL-8-YL)BENZONITRILE FOR USE IN THE TREATMENT OF DISEASES AND CONDITIONS ASSOCIATED WITH MOVEMENT DISORDERS” (OnTrack Therapeutics Limited, priority 2022, published 2025)
